# According to patent US11026945B2, “Protein kinase RNA-like endoplasmic reticulum kinase (PERK) inhibitors for prevention and/or treatment of lung injury and/or inflammation” (THE TRUSTEES OF THE UNIVERSITY OF PENNSYLVANIA, priority 2016, dated 2021):
# What was measured:
# AEC-I monolayers = experiment: Monolayer permeability, FITC-labeled streptavidin binding to biotin; format: cell-based, rat; settings: stretched monolayers (25%, 6 hrs), 1 μM PI pretreatment 18 hours
# From the text: To obtain monolayer rat type-II alveolar epithelial cells (AEC-II), cells were isolated from Sprague-Dawley rats (250-300 g, N=30 purchased from Charles River Laboratories, Wilmington, Mass.) described by Tschumperlin D J, Margulies SS. Equibiaxial deformation-induced injury of alveolar epithelial cells in vitro. Am J Physiol. 1998; 275(6 Pt 1):L1173-83. Epub 1998/12/09 (PubMed PMID: 9843855), with modifications. Briefly, animals were killed and the lungs were harvested. The lung tissue was digested with elastase at 37° C. and distal airways were isolated. Following, cells were placed on rat IgG coated containing no serum for 90 minutes to eliminate contaminating leukocytes and parenchymal cells. This isolation method yielded approximately 95% pure alveolar epithelial cell population. 1.3 million cells were plated on 1 cm diameter fibronectin-coated custom made silastic membranes. In permeability studies, biotin were mixed with fibronectin and membranes were pretreated with oxygen plasma coating to ensure homogenous distribution of the fibronectin. Cells were cultured with 10% fetal bovine serum (FBS)-containing Minimal Essential Medium (MEM) containing low dose antibiotics for 3 days. 32 to 40 monolayers were per rat. On the 3rd day, matured monolayers were randomized to be exposed to one of the treatments for 24 hours (N=3 monolayers/treatment): • A. RNAiMax transfection reagent treatment using serum free media (Opti-MEM, Thermo Fisher Scientific, Waltham, Mass.). This is a negative control for siRNA experiments where serum free media is used for improved transfection efficiency; • B. non-targeting siRNA treatment ([…], Dharmacon) serves a negative control for transfection; • C. […]
# The dose of siRNA and PI treatment was selected based on dose-response curves above (FIG. 2A-FIG. 2E). […] All membranes were treated with FITC-labeled streptavidin (Thermo Fisher Scientific) at the end of the experiment and light emission was detected at 488 nm with fluorescent microscopy (Nikon TE300, Melville, N.Y.). […]
# [1] = system: ISR (p-EIF2α, ATF4, CHOP) in lung tissue; experiment: Lung tissue ISR western blot in rat VILI model; format: in vivo
# Protocol: The right lung was harvested. […] For cytokine analysis serum was used.
# Total protein from cells and lung tissue were extracted using RIPA lysis buffer. Total protein was quantified with Pierce […] (Thermo Fisher Scientific). Western blotting for phosphorylated (p) and total (t) forms of EIF2α, p- and t-IRE1α, p- and t-PERK, ATF4, CHOP and XBP1 was performed. B-actin was used as loading control (Santa Cruz Biotechnologies, Santa Cruz, Calif.). The following primary antibodies were used: p-EIF2α (Ser 51) and t-EIF2α rabbit monoclonal antibody (Cell Signaling, Danvers, Mass.), p-IRE1α (Ser 724) and t-IRE1α rabbit monoclonal antibody (Abcam, Cambridge, Mass.), ATF4 rabbit polyclonal antibody (Sigma-Aldrich), CHOP (F-168) mouse polyclonal antibody (Santa Cruz), XBP-1 rabbit monoclonal antibody (Abcam) and B-actin mouse polyclonal antibody (Santa Cruz). For immunoprecipitation of PERK, p-PERK (Thr 981) antibody (Santa Cruz) was used and p-PERK (Thr 980) and t-PERK were detected with rabbit monoclonal antibodies (Cell signaling). N=4-8 biological replicates per conditions were used in immunoblot studies. Immunoblots were scanned and bend densities were analyzed using Image J software.
# [2] = ventilated rats (VPI), 30 mg/kg oral gavage 4 hours before ventilation
structure (smiles),measurement,setting,value
"Cn1cc(-c2ccc3c(c2)CCN3C(=O)Cc2cccc(C(F)(F)F)c2)c2c(N)ncnc21 [PI, 1-[5-(4-Amino-7-methyl-7H-pyrrolo[2,3-d]pyrimidin-5-yl)indolin-1-yl]-2-(3-trifluoromethylphenyl)ethanone]",monolayer permeability,AEC-I monolayers,significantly reduced
same,"p-EIF2α, ATF4 and CHOP in lung tissue","[1]; spontaneously breathing controls (CPI), 30 mg/kg oral gavage",did not affect
same,VILI-mediated phosphorylation of EIF2α in lung tissue,[1]; [2],significantly reduced
same,protein expression of ATF4 in lung tissue,[1]; [2],significantly reduced
same,protein expression of CHOP in lung tissue,[1]; [2],significantly reduced
